Laboratory results reported in patent EP2149558A1, “5-[(3,3,3-Trifluoro-2-hydroxy-1-arylpropyl)amino-1-arylquinolin-2-ones, a process for their production and their use as anti-inflammatory agents” (Bayer Schering Pharma Aktiengesellschaft, priority 2008, dated 2010).

System: secretion of cytokine IL-8 into the human monocyte cell line THP-1
Experiment: inhibition of LPS-triggered IL-8 secretion in THP-1 cells (ELISA of supernatant)
Type: cell-based
Description: As an essential, molecular mechanism for the anti-inflammatory action of glucocorticoids, the GR-mediated inhibition of the transcription of cytokines, adhesion molecules, enzymes and other pro-inflammatory factors is considered. This inhibition is produced by an interaction of the GR with other transcription factors, e.g., AP-1 and NF-kappa-B (for a survey, see Cato, A. C. B., and Wade, E., BioEssays 18, 371-378, 1996).
The concentration of the cytokines was determined in the supernatant by means of commercially available ELISA kits.

COCC(O)(C(Nc1cc(F)cc2c1ccc(=O)n2-c1ccc(F)nc1)c1ccc(OC)c(F)c1Cl)C(F)(F)F (centres unmarked) [Example 2, 5-{[1-(2-Chloro-3-fluoro-4-methoxyphenyl)-3,3,3-trifluoro-2-hydroxy-2-(methoxymethyl)propyl]amino}-7-fluoro-1-(6-fluoropyridin-3-yl)-1H-quinolin-2-one]
IC50 (Homo sapiens, inhibition of LPS-triggered IL-8 secretion, THP-1 cells, read-out: IC50(IL8)): 310 pM
efficacy (IL-8 inhibition, in comparison with dexamethasone as reference): 107%
